Patent US6521262B2, “Solid instant-release forms of administration and process for producing the same” (Heidelberg Pharma Holding GmbH, priority 1996, dated 2003)

Row | viscosity of the solution (aqueous 7% solution of the active substance) | viscosity (2% aqueous solution of the active substance) [mpas*sec] | Structure (SMILES)
1 | 500-600 mpa*sec | – | CCCCCCCCCCCCSCC(COP(=O)([O-])OCC1OC(n2cc(C)c(=O)[nH]c2=O)CC1N=[N+]=[N-])OCCCCCCCCCC.[Na+] (centres unmarked) [Example 1 active substance, Na salt of 3′-azido-3′-deoxy-5′-thymidylic acid-mono[3-(dodecyl-thio)-2-decyloxypropyl]-ester]
2 | – | 6 | CCCCCCCCCCCCSCC(COP(=O)([O-])OCC1OC(n2cc(C)c(=O)[nH]c2=O)CC1F)OCCCCCCCCCC.[Na+] (centres unmarked) [Example 3 active substance, Na salt of 3′-fluoro-3′-deoxy-5′-thymidylic acid-mono[3-(dodecyl-thio)-2-decyloxypropyl]-ester]
